This passage reports EC50 results from patent US20240270821A1, “GIP/GLP1/GCG TRI-RECEPTOR AGONISTS AND USES THEREOF” (priority 2023, published 2024).

Starred links: 1 amine or outer side, 2 acyl side, 3 side chain; linkers in the order of their positions; H or OH if unused. Non-standard residues stand in square brackets, D forms with d. Residues, ends and D or L forms follow the SMILES beside them. Groups on a side chain read outwards from the residue. *: point of attachment. C18 diacid = O=C(O)CCCCCCCCCCCCCCCCC(=O)*; αMePhe(2-F) = C[C@](N)(Cc1ccccc1F)C(=O)O; γGlu = O=C(O)[C@H](CCC(=O)[*:2])N[*:1]; αMeY = C[C@](N)(Cc1ccc(O)cc1)C(=O)O; 4Pal = N[C@@H](Cc1ccncc1)C(=O)O; αMeL = CC(C)C[C@](C)(N)C(=O)O; αMeS = C[C@](N)(CO)C(=O)O; Orn = NCCC[C@H](N)C(=O)O; AEEA = NCCOCCOCC(=O)O; Aib = CC(C)(N)C(=O)O

What all share (assay type): cell-based
Experiment [1] addresses T1, hGIPR (Homo sapiens, UniProt P48546).
T1 sequence (P48546 22-466): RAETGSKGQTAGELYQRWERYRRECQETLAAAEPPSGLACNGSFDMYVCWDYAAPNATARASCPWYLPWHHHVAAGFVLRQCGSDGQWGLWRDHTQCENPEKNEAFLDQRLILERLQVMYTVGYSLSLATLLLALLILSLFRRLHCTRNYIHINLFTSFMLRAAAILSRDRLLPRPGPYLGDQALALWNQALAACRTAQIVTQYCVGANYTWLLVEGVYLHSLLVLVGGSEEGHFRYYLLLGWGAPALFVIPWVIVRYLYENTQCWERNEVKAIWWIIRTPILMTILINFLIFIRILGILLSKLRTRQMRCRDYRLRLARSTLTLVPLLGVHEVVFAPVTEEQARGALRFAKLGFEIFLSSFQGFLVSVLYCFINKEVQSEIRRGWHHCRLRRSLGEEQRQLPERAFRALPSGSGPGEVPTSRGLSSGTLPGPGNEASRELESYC
In words: Functional cAMP activity in the presence of 1% HSA. The note with it: read-out: cAMP Rel EC50, hGIPR.

Experiment [2] concerns the target T2, hGLP-1R (Homo sapiens, UniProt P43220). In words: Functional cAMP activity in the presence of 1% HSA. The note with it: read-out: cAMP Rel EC50, hGLP-1R.
In a further experiment the target is human GcgR (Homo sapiens, UniProt P47871). Kind of experiment: Functional cAMP activity in the presence of 1% HSA. As to conditions: read-out: cAMP Rel EC50, hGcgR.
The target of experiment [3] is T1, hGIPR. In words: Functional cAMP activation in the presence of 0.1% casein (no HSA). The note with it: read-out: Relative cAMP EC50, hGIPR.
For experiment [4], the target named is T2, hGLP-1R. Described as above. The note with it: read-out: Relative cAMP EC50, hGLP-1R.
Another experiment addresses hGcgR (Homo sapiens, UniProt P47871). The experiment is described as above. The note with it: read-out: Relative cAMP EC50, hGcgR.
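Throughout, for Relative cAMP EC50, hGIPR: intracellular cAMP rise after 30 min at 37 °C read by HTRF against a standard curve, scaled between buffer alone (0%) and top control ligand concentration (100%), four-parameter fit.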
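Throughout, for Relative cAMP EC50, hGLP-1R: intracellular cAMP rise after 30 min at 37 °C read by HTRF, normalized between buffer only (0%) and maximal control ligand (100%), four-parameter variable-slope fit.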
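Throughout, for Relative cAMP EC50, hGcgR: intracellular cAMP rise after 30 min at 37 °C, read by HTRF against a cAMP standard curve, scaled from buffer only (0%) to maximal control ligand response (100%).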

human GcgR, sequence (P47871 26-477): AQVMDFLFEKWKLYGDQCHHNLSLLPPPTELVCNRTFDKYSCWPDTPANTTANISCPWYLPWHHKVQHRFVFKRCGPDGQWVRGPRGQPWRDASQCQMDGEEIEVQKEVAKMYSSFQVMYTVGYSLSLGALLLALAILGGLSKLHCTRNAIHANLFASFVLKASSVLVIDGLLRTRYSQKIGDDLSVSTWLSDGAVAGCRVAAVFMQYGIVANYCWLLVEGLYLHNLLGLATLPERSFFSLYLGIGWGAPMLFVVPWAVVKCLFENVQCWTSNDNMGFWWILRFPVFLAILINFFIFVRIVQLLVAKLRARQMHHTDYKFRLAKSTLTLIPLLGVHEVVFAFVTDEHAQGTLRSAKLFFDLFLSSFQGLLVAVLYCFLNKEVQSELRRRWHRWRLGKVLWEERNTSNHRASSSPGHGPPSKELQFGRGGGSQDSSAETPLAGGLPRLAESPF
hGcgR, sequence (P47871 26-477): as above
T2 sequence (P43220 24-463): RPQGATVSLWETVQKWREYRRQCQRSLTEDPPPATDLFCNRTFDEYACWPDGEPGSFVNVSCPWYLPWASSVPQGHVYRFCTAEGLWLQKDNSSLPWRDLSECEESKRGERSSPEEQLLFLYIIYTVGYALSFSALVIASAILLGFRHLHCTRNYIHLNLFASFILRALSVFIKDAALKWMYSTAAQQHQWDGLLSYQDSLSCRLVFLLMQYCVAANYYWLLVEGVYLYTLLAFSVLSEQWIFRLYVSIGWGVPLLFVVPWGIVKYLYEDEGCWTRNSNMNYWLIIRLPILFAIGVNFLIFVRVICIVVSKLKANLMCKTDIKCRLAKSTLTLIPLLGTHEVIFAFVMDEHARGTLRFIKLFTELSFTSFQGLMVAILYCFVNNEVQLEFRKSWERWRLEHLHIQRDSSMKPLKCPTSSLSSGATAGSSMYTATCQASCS

The term EC50 denotes the concentration that produces a half-maximal response. As for `CC[C@H](C)[C@H](NC(=O)[C@H](Cc1ccccc1)NC(=O)[C@H](C)NC(=O)C(C)(C)NC(=O)[C@H](CCC(N)=O)NC(=O)[C@H](C)NC(=O)[C@H](CCCCNC(=O)COCCOCCNC(=O)CC[C@H](NC(=O)CCCCCCCCCCCCCCCCC(=O)O)C(=O)O)NC(=O)[C@H](CCCCN)NC(=O)[C@H](CC(=O)O)NC(=O)[C@H](CC(C)C)NC(=O)[C@](C)(CC(C)C)NC(=O)[C@@H](NC(=O)[C@H](CO)NC(=O)[C@H](Cc1ccncc1)NC(=O)[C@H](CC(=O)O)NC(=O)[C@H](CO)NC(=O)[C@@H](NC(=O)[C@](C)(Cc1ccccc1F)NC(=O)[C@@H](NC(=O)CNC(=O)[C@H](CCC(N)=O)NC(=O)C(C)(C)NC(=O)[C@@H](N)Cc1ccc(O)cc1)[C@@H](C)O)[C@@H](C)O)[C@@H](C)CC)C(=O)N[C@@H](CCC(=O)O)C(=O)N[C@@H](Cc1ccc(O)cc1)C(=O)N[C@@H](CC(C)C)C(=O)N[C@@H](CCC(=O)O)C(=O)N[C@@H](CCC(=O)O)C(=O)NCC(=O)NCC(=O)N1CCC[C@H]1C(=O)N[C@@H](CO)C(=O)N[C@@H](CO)C(=O)NCC(=O)N[C@@H](C)C(=O)N1CCC[C@H]1C(=O)N1CCC[C@H]1C(=O)N1CCC[C@H]1C(=O)N[C@@H](CCC(=O)O)C(N)=O` [Example 445] (H-Y[Aib]QGT[αMePhe(2-F)]TSD[4Pal]SI[αMeL]LDKK([AEEA-γGlu-C18 diacid])AQ[Aib]AFIEYLEEGGPSSGAPPPE-NH2), the concentration for a half-maximal effect (EC50) at hGIPR [1] came to 2.41 nM; at hGLP-1R [2], 23.2 nM; on human GcgR it was 448 nM; on hGIPR [3] it was 0.0206 nM; at hGLP-1R [4] it was 0.731 nM; at hGcgR it was 10.1 nM.
With `CC[C@H](C)[C@H](NC(=O)[C@H](Cc1ccccc1)NC(=O)[C@H](C)NC(=O)C(C)(C)NC(=O)[C@H](CCC(N)=O)NC(=O)[C@H](C)NC(=O)[C@H](CCCCNC(=O)CC[C@H](NC(=O)CC[C@H](NC(=O)CCCCCCCCCCCCCCCCC(=O)O)C(=O)O)C(=O)O)NC(=O)[C@H](CCCCN)NC(=O)[C@H](CC(=O)O)NC(=O)[C@H](CC(C)C)NC(=O)[C@](C)(CC(C)C)NC(=O)[C@@H](NC(=O)[C@H](CO)NC(=O)[C@H](Cc1ccncc1)NC(=O)[C@H](CC(=O)O)NC(=O)[C@H](CO)NC(=O)[C@@H](NC(=O)[C@](C)(Cc1ccccc1F)NC(=O)[C@@H](NC(=O)CNC(=O)[C@H](CCC(N)=O)NC(=O)C(C)(C)NC(=O)[C@@H](N)Cc1ccc(O)cc1)[C@@H](C)O)[C@@H](C)O)[C@@H](C)CC)C(=O)N[C@@H](CCC(=O)O)C(=O)N[C@@H](Cc1ccc(O)cc1)C(=O)N[C@@H](CC(C)C)C(=O)N[C@@H](CO)C(=O)N[C@@H](CCC(=O)O)C(=O)NCC(=O)NCC(=O)N1CCC[C@H]1C(=O)N[C@@H](CO)C(=O)N[C@@H](CO)C(=O)NCC(=O)N[C@@H](C)C(=O)N1CCC[C@H]1C(=O)N1CCC[C@H]1C(=O)N1CCC[C@H]1C(=O)N[C@@H](CO)C(N)=O` [Example 446] (H-Y[Aib]QGT[αMePhe(2-F)]TSD[4Pal]SI[αMeL]LDKK([γGlu-γGlu-C18 diacid])AQ[Aib]AFIEYLSEGGPSSGAPPPS-NH2), the EC50 on hGIPR [1] worked out at 3.01 nM; at hGLP-1R [2], 24.5 nM; at human GcgR it was 516 nM; at hGIPR [3], 0.0351 nM; on hGLP-1R [4], 0.696 nM; at hGcgR, 8.34 nM.
For `CC[C@H](C)[C@H](NC(=O)[C@H](CC(C)C)NC(=O)[C@](C)(Cc1ccc(O)cc1)NC(=O)[C@@H](CCC(=O)O)NC(=O)[C@@H](NC(=O)[C@H](Cc1ccccc1)NC(=O)[C@H](CCCN)NC(=O)C(C)(C)NC(=O)[C@H](CCC(N)=O)NC(=O)[C@H](C)NC(=O)[C@H](CCCCNC(=O)CC[C@H](NC(=O)CC[C@H](NC(=O)CCCCCCCCCCCCCCCCC(=O)O)C(=O)O)C(=O)O)NC(=O)[C@H](CCCN)NC(=O)[C@H](CC(=O)O)NC(=O)[C@H](CC(C)C)NC(=O)[C@](C)(CC(C)C)NC(=O)[C@H](CCC(=O)O)NC(=O)[C@](C)(CO)NC(=O)[C@H](Cc1ccncc1)NC(=O)[C@H](CC(=O)O)NC(=O)[C@H](CO)NC(=O)[C@@H](NC(=O)[C@](C)(Cc1ccccc1F)NC(=O)[C@@H](NC(=O)CNC(=O)[C@H](CCC(N)=O)NC(=O)C(C)(C)NC(=O)[C@@H](N)Cc1ccc(O)cc1)[C@@H](C)O)[C@@H](C)O)[C@@H](C)CC)C(=O)N[C@@H](CCC(=O)O)C(=O)NCC(=O)NCC(=O)N1CCC[C@H]1C(=O)N[C@@H](CO)C(=O)N[C@@H](CO)C(=O)NCC(=O)N[C@@H](CCC(=O)O)C(=O)N1CCC[C@H]1C(=O)N1CCC[C@H]1C(=O)N1CCC[C@H]1C(=O)N[C@@H](CCC(=O)O)C(N)=O` [Example 447] (H-Y[Aib]QGT[αMePhe(2-F)]TSD[4Pal][αMeS]E[αMeL]LD[Orn]K([γGlu-γGlu-C18 diacid])AQ[Aib][Orn]FI[dE][αMeY]LIEGGPSSGEPPPE-NH2), the EC50 on hGIPR [1] is 1.81 nM; on hGLP-1R [2], 11.3 nM; at human GcgR it was 1090 nM; on hGIPR [3] it was 0.0177 nM; on hGLP-1R [4], 0.214 nM; on hGcgR, 9.71 nM.
Consider `CC[C@H](C)[C@H](NC(=O)[C@H](CC(C)C)NC(=O)[C@H](Cc1ccc(O)cc1)NC(=O)[C@@H](CCC(=O)O)NC(=O)[C@@H](NC(=O)[C@H](Cc1ccccc1)NC(=O)[C@H](CCCN)NC(=O)C(C)(C)NC(=O)[C@H](CCC(N)=O)NC(=O)[C@H](C)NC(=O)[C@H](CCCCNC(=O)CC[C@H](NC(=O)CC[C@H](NC(=O)CCCCCCCCCCCCCCCCC(=O)O)C(=O)O)C(=O)O)NC(=O)[C@H](CCCN)NC(=O)[C@H](CC(=O)O)NC(=O)[C@H](CC(C)C)NC(=O)[C@](C)(CC(C)C)NC(=O)[C@@H](NC(=O)[C@](C)(CO)NC(=O)[C@H](Cc1ccncc1)NC(=O)[C@H](CC(=O)O)NC(=O)[C@H](CO)NC(=O)[C@@H](NC(=O)[C@](C)(Cc1ccccc1F)NC(=O)[C@@H](NC(=O)CNC(=O)[C@H](CCC(N)=O)NC(=O)C(C)(C)NC(=O)[C@@H](N)Cc1ccc(O)cc1)[C@@H](C)O)[C@@H](C)O)[C@@H](C)CC)[C@@H](C)CC)C(=O)N[C@@H](CCC(=O)O)C(=O)NCC(=O)NCC(=O)N1CCC[C@H]1C(=O)N[C@@H](CO)C(=O)N[C@@H](CO)C(=O)NCC(=O)N[C@@H](CCC(=O)O)C(=O)N1CCC[C@H]1C(=O)N1CCC[C@H]1C(=O)N1CCC[C@H]1C(=O)N[C@@H](CCC(=O)O)C(N)=O` [Example 448] (H-Y[Aib]QGT[αMePhe(2-F)]TSD[4Pal][αMeS]I[αMeL]LD[Orn]K([γGlu-γGlu-C18 diacid])AQ[Aib][Orn]FI[dE]YLIEGGPSSGEPPPE-NH2), for which the EC50 at hGIPR [1] stood at 1.35 nM; at hGLP-1R [2], 19.5 nM; at human GcgR, 302 nM; on hGIPR [3], 0.0171 nM; on hGLP-1R [4], 0.336 nM; at hGcgR it was 4.54 nM.
Turning to `CC[C@H](C)[C@H](NC(=O)[C@H](CC(C)C)NC(=O)[C@H](Cc1ccc(O)cc1)NC(=O)[C@@H](CCC(=O)O)NC(=O)[C@@H](NC(=O)[C@H](Cc1ccccc1)NC(=O)[C@H](CC(N)=O)NC(=O)C(C)(C)NC(=O)[C@H](CCC(N)=O)NC(=O)[C@H](C)NC(=O)[C@H](CCCCNC(=O)CC[C@H](NC(=O)CC[C@H](NC(=O)CCCCCCCCCCCCCCCCC(=O)O)C(=O)O)C(=O)O)NC(=O)[C@H](CCCN)NC(=O)[C@H](CC(=O)O)NC(=O)[C@H](CC(C)C)NC(=O)[C@](C)(CC(C)C)NC(=O)[C@@H](NC(=O)[C@](C)(CO)NC(=O)[C@H](Cc1ccncc1)NC(=O)[C@H](CC(=O)O)NC(=O)[C@H](CO)NC(=O)[C@@H](NC(=O)[C@](C)(Cc1ccccc1F)NC(=O)[C@@H](NC(=O)CNC(=O)[C@H](CCC(N)=O)NC(=O)C(C)(C)NC(=O)[C@@H](N)Cc1ccc(O)cc1)[C@@H](C)O)[C@@H](C)O)[C@@H](C)CC)[C@@H](C)CC)C(=O)N[C@@H](CCC(=O)O)C(=O)NCC(=O)NCC(=O)N1CCC[C@H]1C(=O)N[C@@H](CO)C(=O)N[C@@H](CO)C(=O)NCC(=O)N[C@@H](CCC(=O)O)C(=O)N1CCC[C@H]1C(=O)N1CCC[C@H]1C(=O)N1CCC[C@H]1C(=O)N[C@@H](CCC(=O)O)C(N)=O` [Example 449] (H-Y[Aib]QGT[αMePhe(2-F)]TSD[4Pal][αMeS]I[αMeL]LD[Orn]K([γGlu-γGlu-C18 diacid])AQ[Aib]NFI[dE]YLIEGGPSSGEPPPE-NH2), the EC50 on hGIPR [1] is 1.66 nM; on hGLP-1R [2], 18.9 nM; at human GcgR it was 424 nM; at hGIPR [3], 0.0205 nM; at hGLP-1R [4] it was 0.568 nM; at hGcgR it was 11.5 nM.
